Consider 3 compounds from patent EP4790066A1, “GLP-1R/GIPR/GCGR TRIPLE AGONIST ANALOGUE AND USE THEREOF” (Shenzhen Bay Laboratory, priority 2023, dated 2025).

Series [1] deals with T1, GCGR (Homo sapiens, UniProt P47871).
T1 construct: expressed in transfected cells
In words: CreLuc method (CRE-luciferase reporter), 293HEK/pGM-CREB-L-Luc/GCGR pool. Format: cell-based. The following applies: 6 h incubation, read-out: EC50 (pM) for each receptor GCGR. In a few lines:
(§1)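 Stable HEK293 pools co-expressing each receptor with a CRE-luciferase reporter were plated at 20,000 cells/well in freestyle medium and treated with compound dilution series for 6 h at 37 °C. Luminescence was read with ONE-GLO to derive EC50.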

Series [2] deals with T2, GIPR (Homo sapiens, UniProt P48546).
T2 construct: expressed in transfected cells
T2 sequence (P48546 22-466): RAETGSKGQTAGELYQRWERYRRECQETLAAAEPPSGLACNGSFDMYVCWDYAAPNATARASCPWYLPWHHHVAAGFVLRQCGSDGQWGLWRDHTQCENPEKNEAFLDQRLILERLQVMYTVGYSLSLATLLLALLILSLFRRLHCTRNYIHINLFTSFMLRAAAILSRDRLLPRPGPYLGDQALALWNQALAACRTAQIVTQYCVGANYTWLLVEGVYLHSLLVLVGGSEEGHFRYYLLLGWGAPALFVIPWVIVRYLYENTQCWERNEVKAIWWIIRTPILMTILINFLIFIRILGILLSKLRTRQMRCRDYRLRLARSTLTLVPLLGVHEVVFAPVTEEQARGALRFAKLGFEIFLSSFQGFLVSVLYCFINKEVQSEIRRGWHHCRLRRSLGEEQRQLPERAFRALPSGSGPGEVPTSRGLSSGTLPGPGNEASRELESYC
The series can be described thus: CreLuc method (CRE-luciferase reporter), HEK293/pGM-CREB-L-Luc/GIPR pool. Particulars: 6 h incubation, read-out: EC50 (pM) for each receptor GIPR. Format: cell-based. The method, boiled down:
as §1

The target in series [3] is T1, GCGR. The series can be described thus: cAMP method (HTRF cAMP detection kit), HEK293/pGM-CREB-L-Luc/GCG pool. Format: cell-based. The following applies: read-out: EC50 (pM) for each receptor GCGR. As for the experimental part: (§2) 2. Insulinotropic analogues can bind to target receptors on the cell membrane, activate the receptors, and induce release. The activity of the test substance can be determined using the HTRF method with a cAMP detection kit. Therefore, the cAMP method can be used to detect the target peptide derivatives (or polypeptide derivatives, i.e., TG1-TG86) prepared in Example 1 and Example 2. […] The test cell line was selected, treated with cAMP-specific trypsin for digestion. 3 mL of serum-free DMEM culture medium was added, and the cells were pipetted, resuspended, and counted. 5 µL of IBMX (prepared with serum-free DMEM medium, 0.5 mM) and test cells (5 µL/7500 cells/well) were added in a 384-well plate sequentially. The plate was incubated at 37°C under 5% CO2 for 30 min, followed by the addition of cAMP-d2 (5 µL, 1x) and Anti-cAMP-Cryptate (5 µL, 1x). The mixture was kept at room temperature for 1 h, after which the HTRF value was measured using a chemiluminescent microplate reader, and the determination result was recorded. […] Table 4: EC50 values for target peptide derivatives

The target of series [4] is T3, GLP-1R (Homo sapiens, UniProt P43220).
T3 construct: expressed in transfected cells
T3 sequence (P43220 24-463, species assumed): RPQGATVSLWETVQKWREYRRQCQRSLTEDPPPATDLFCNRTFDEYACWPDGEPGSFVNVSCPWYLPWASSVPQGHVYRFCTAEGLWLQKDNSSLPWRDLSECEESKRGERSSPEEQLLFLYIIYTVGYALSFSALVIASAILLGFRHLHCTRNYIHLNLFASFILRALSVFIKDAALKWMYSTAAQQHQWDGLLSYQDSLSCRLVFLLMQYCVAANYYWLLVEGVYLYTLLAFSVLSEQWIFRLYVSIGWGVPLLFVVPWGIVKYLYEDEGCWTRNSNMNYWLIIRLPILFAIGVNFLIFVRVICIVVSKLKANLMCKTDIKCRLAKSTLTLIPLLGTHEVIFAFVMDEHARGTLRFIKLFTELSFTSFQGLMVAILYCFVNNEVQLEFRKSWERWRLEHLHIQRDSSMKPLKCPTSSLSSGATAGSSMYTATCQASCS
The series can be described thus: CreLuc method (CRE-luciferase reporter), HEK293/pGM-CREB-L-Luc/GLP-1R pool. Format: cell-based. Particulars: 6 h incubation, read-out: EC50 (pM) for each receptor GLP-1R. The method, boiled down: as §1

Series [5] deals with T3, GLP-1R. In words: cAMP method (HTRF cAMP detection kit), HEK293/pGM-CREB-L-Luc/GLP-1 pool. Format: cell-based. The following applies: read-out: EC50 (pM) for each receptor GLP-1R. As for the experimental part: as §2
Series [6] addresses T2, GIPR. In words: cAMP method (HTRF cAMP detection kit), HEK293/pGM-CREB-L-Luc/GIP pool. Format: cell-based. The following applies: read-out: EC50 (pM) for each receptor GIPR. As to the method: as §2
A short description of another series: in vivo. Further details: species or system male SD rats. Particulars: rat. As for the experimental part:
The pharmacokinetic behavior of target peptide derivatives (or polypeptide derivatives) prepared in Example 1 and Example 2, i.e., TG1-TG94 in rodents was tested. The specific steps are as follows:
The target peptide derivatives (TG1-TG94) to be tested were administered to male SD rats via subcutaneous injection (SC, 3 mg/kg; drug vehicle: PBS, concentration: 1.5 mg/mL; administration volume: 2 mL) and intravenous injection (IV, 1 mg/kg; drug vehicle: PBS, concentration: 0.5 mg/mL; administration volume: 2 mL) as a single dose, respectively. Whole blood samples were collected from the jugular vein or other appropriate vein at the following time points after administration: for SC, 15 min, 30 min, 1 h, 2 h, 4 h, 6 h, 8 h, 24 h, 48 h, 72 h, 96 h, 120 h, and 168 h; for IV, 5 min, 15 min, 30 min, 1 h, 2 h, 4 h, 8 h, 24 h, 48 h, 72 h, 96 h, 120 h, and 168 h. 0.2 mL of blood was collected and transferred into a labeled EDTA-K2 anticoagulant tube. The tube was gently inverted to ensure thorough mixing of the anticoagulant (EDTA-K2) with the blood and immediately placed on wet ice. Plasma separation was performed as soon as possible by centrifugation under the following conditions: 4°C, 6800xg, for 6 min. The plasma samples were stored in a refrigerator at no higher than -20°C and used for analysis when needed.
Under the condition of yellow light in an ice-water bath, except for blank samples, 300 µL of precipitant containing an internal standard was added to a 96-well plate containing 20 µL of standard curve sample, quality control sample, or unknown sample; 300 µL of acetonitrile was added to the blank sample. The mixture was vortexed, mixed well, and then centrifuged. 150 µL of the supernatant after centrifugation was transferred to a new 96-well plate, and 150 µL of ultrapure water was added and mixed well. The above samples were subjected to quantitative analysis using LC-MS analysis with XB-C18 (2.1 * 100 mm, 3 µm) chromatography for gradient elution. The mobile phases used were: mobile phase A = 0.1% formic acid-water; mobile phase B = acetonitrile. Phoenix WinNonlin software was used to calculate the pharmacokinetic parameters. […] Table 5A: Pharmacokinetic parameters of target peptide derivatives

Structures are written as SMILES. *1 amine or outer side, *2 acyl side, *3 side chain or, on linkers, in order; H or OH if unused. Where a SMILES comes first, the peptide text is derived from it. Bridges are numbered along the chain shown (N, C = ends). [ ]: non-standard residue; d: D form. X1 = O=C(O)CCCCCCCCCCCCCCCCCCC(=O)N[C@@H](CCCCNC(=O)COCCOCCNC(=O)COCCOCCNC(=O)CCC(=O)N(CCNC(=O)C[*:1])CCNC(=O)C[*:2])C(=O)O; Phe(2-F) = N[C@@H](Cc1ccccc1F)C(=O)O; αMeL = CC(C)C[C@](C)(N)C(=O)O; αMeK = C[C@](N)(CCCCN)C(=O)O; αMeS = C[C@](N)(CO)C(=O)O; Aib = CC(C)(N)C(=O)O

T1 sequence (P47871 26-477, species assumed): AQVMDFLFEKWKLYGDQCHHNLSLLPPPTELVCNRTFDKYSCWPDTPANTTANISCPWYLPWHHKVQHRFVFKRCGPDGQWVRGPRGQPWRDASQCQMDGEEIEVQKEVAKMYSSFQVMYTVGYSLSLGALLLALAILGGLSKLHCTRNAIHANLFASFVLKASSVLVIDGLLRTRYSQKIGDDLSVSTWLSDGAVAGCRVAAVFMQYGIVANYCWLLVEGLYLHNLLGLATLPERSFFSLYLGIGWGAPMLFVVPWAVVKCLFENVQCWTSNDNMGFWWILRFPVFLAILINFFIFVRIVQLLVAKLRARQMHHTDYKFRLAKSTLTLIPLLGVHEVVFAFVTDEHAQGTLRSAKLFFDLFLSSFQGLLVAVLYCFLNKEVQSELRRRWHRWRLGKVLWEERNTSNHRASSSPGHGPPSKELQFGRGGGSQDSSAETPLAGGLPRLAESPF

For `CC[C@H](C)[C@@H]1NC(=O)[C@H](Cc2ccccc2)NC(=O)[C@@H](NC(=O)C(C)(C)NC(=O)[C@H](CCC(N)=O)NC(=O)[C@H](C)NC(=O)[C@H](CCCCNC(C)=O)NC(=O)[C@H](CCCCN)NC(=O)[C@H](CC(=O)O)NC(=O)[C@H](CCC(C)C)NC(=O)[C@](C)(CC(C)C)NC(=O)[C@@H](NC(=O)[C@H](CO)NC(=O)[C@H](Cc2ccc(O)cc2)NC(=O)[C@H](CC(=O)O)NC(=O)[C@H](CO)NC(=O)[C@@H](NC(=O)[C@H](Cc2ccccc2)NC(=O)[C@@H](NC(=O)CNC(=O)[C@H](CCC(N)=O)NC(=O)C(C)(C)NC(=O)[C@@H](N)Cc2ccc(O)cc2)[C@@H](C)O)[C@@H](C)O)[C@@H](C)CC)CSCC(=O)NCCN(C(=O)CCC(=O)NCCOCCOCC(=O)NCCOCCOCC(=O)NCCCC[C@H](NC(=O)CCCCCCCCCCCCCCCCCCC(=O)O)C(=O)O)CCNC(=O)CSC[C@@H](C(=O)NCC(=O)NCC(=O)N2CCC[C@H]2C(=O)N[C@@H](CO)C(=O)N[C@@H](CO)C(=O)NCC(=O)N[C@@H](C)C(=O)N2CCC[C@H]2C(=O)N2CCC[C@H]2C(=O)N2CCC[C@H]2C(=O)N[C@@H](CO)C(N)=O)NC(=O)[C@H](CC(C)C)NC(=O)[C@H](CC(C)C)NC(=O)[C@H](Cc2ccc(O)cc2)NC(=O)[C@H](CCC(=O)O)NC1=O` [TG25], the EC50 at GCGR [1] is 311 pM; at GIPR [2], 24.4 pM; on GCGR [3] it was 65.1 pM; on GLP-1R [4], 54 pM; on GLP-1R [5] it was 2.2 pM.
On to `CC[C@H](C)[C@H](NC(=O)[C@H](Cc1ccccc1)NC(=O)[C@H](C)NC(=O)[C@@H]1CSCC(=O)NCCN(C(=O)CCC(=O)NCCOCCOCC(=O)NCCOCCOCC(=O)NCCCC[C@H](NC(=O)CCCCCCCCCCCCCCCCCCC(=O)O)C(=O)O)CCNC(=O)CSC[C@H](NC(=O)[C@](C)(CCCCN)NC(=O)[C@H](CC(=O)O)NC(=O)[C@H](CC(C)C)NC(=O)[C@](C)(CC(C)C)NC(=O)[C@@H](NC(=O)[C@](C)(CO)NC(=O)[C@H](Cc2ccc(O)cc2)NC(=O)[C@H](CC(=O)O)NC(=O)[C@H](CO)NC(=O)[C@@H](NC(=O)[C@H](Cc2ccccc2F)NC(=O)[C@@H](NC(=O)CNC(=O)[C@H](CCC(N)=O)NC(=O)C(C)(C)NC(=O)[C@@H](N)Cc2ccc(O)cc2)[C@@H](C)O)[C@@H](C)O)[C@@H](C)CC)C(=O)N[C@@H](C)C(=O)N[C@@H](CCC(N)=O)C(=O)N1)C(=O)N[C@@H](CCC(=O)O)C(=O)N[C@@H](Cc1ccc(O)cc1)C(=O)N[C@@H](CC(C)C)C(=O)N[C@@H](CC(C)C)C(=O)N[C@@H](C)C(=O)NCC(=O)NCC(=O)N1CCC[C@H]1C(=O)N[C@@H](CO)C(=O)N[C@@H](CO)C(=O)NCC(=O)N[C@@H](C)C(=O)N1CCC[C@H]1C(=O)N1CCC[C@H]1C(=O)N1CCC[C@H]1C(=O)N[C@@H](CO)C(N)=O` [TG62] (H-Y[Aib]QGT[Phe(2-F)]TSDY[αMeS]I[αMeL]LD[αMeK]CAQCAFIEYLLAGGPSSGAPPPS-NH2; linker 17-20 via X1), for which the EC50 at GCGR [1] was determined as 783 pM; on GIPR [2] it was 27.9 pM; on GCGR [3], 62.2 pM; at GLP-1R [4] it was 371 pM; at GIPR [6], 6 pM.
Take `CC[C@H](C)[C@@H]1NC(=O)[C@H](Cc2ccccc2)NC(=O)[C@@H](NC(=O)C(C)(C)NC(=O)[C@H](CCC(N)=O)NC(=O)[C@H](C)NC(=O)[C@H](CCCCNC(C)=O)NC(=O)[C@H](CCCCN)NC(=O)[C@H](CC(=O)O)NC(=O)[C@H](CC(C)C)NC(=O)[C@](C)(CC(C)C)NC(=O)[C@@H](NC(=O)[C@H](CO)NC(=O)[C@H](Cc2ccc(O)cc2)NC(=O)[C@H](CC(=O)O)NC(=O)[C@H](CO)NC(=O)[C@@H](NC(=O)[C@H](Cc2ccccc2F)NC(=O)[C@@H](NC(=O)CNC(=O)[C@H](CCC(N)=O)NC(=O)C(C)(C)NC(=O)[C@@H](N)Cc2ccc(O)cc2)[C@@H](C)O)[C@@H](C)O)[C@@H](C)CC)CSCC(=O)NCCN(C(=O)CCC(=O)NCCOCCOCC(=O)NCCOCCOCC(=O)NCCCC[C@H](NC(=O)CCCCCCCCCCCCCCCCCCC(=O)O)C(=O)O)CCNC(=O)CSC[C@@H](C(=O)NCC(=O)NCC(=O)N2CCC[C@H]2C(=O)N[C@@H](CO)C(=O)N[C@@H](CO)C(=O)NCC(=O)N[C@@H](C)C(=O)N2CCC[C@H]2C(=O)N2CCC[C@H]2C(=O)N2CCC[C@H]2C(=O)N[C@@H](CO)C(N)=O)NC(=O)[C@H](CC(C)C)NC(=O)[C@H](CC(C)C)NC(=O)[C@H](Cc2ccc(O)cc2)NC(=O)[C@H](CCC(=O)O)NC1=O` [TG40]: the EC50 on GCGR [1] amounted to 92.9 pM. Moreover, the EC50 at GIPR [2] was determined as 12.5 pM. Also, at GCGR [3], the EC50 came to 2.1 pM. In the series “in vivo” (male, SD, iv, 1 mg/kg), the AUC(0-inf) stood at 165 µg·h/mL, the AUC(0-t) stood at 164 µg·h/mL, the MRT is 22.1 h and the Vd was 0.134 L/kg. In “in vivo” (male, SD, iv, 1 mg/kg), this compound showed a clearance of 0.101 mL/min/kg and a half-life of 15 h. The compound also registered a bioavailability in the series “in vivo” (male, SD, sc) of 50%. In the series “in vivo” (male, SD, sc, 3 mg/kg), the AUC(0-inf) was 248 µg·h/mL, the AUC(0-t) was determined as 247 µg·h/mL, the apparent clearance (CL/F) was 0.205 mL/min/kg and the Cmax stood at 4770 ng/mL. For the same compound, in the series “in vivo” (male, SD, sc, 3 mg/kg), the MRT is 36.9 h, the Tmax is 24 h and the half-life was 13.1 h. Moreover, in the series “in vivo” (iv, 1 mg/kg), the “AUC0-t /AUC0-inf” value was found to be 0.997 and the Kel was found to be 0.0462 h⁻¹. Further, in “in vivo” (sc, 3 mg/kg), the “AUC0-t /AUC0-inf” value is 0.996 and the Vz/F was 0.232 L/kg. For the same compound, the EC50 at GLP-1R [4] was determined as 33.9 pM. In addition, the concentration giving a half-maximal response (EC50) on GIPR [6] amounted to 3.1 pM.
